Columns and labels:
[1] = Persistence of fluorescence after subcutaneous injection in nude mouse (IVIS fluorescence image); assay type: in vivo
Method: In order to see the fluorescence persistence of the alginic acid hydrogel containing indocyanine green-human serum albumin in a nude mouse, it was injected in the form of a gel subcutaneously to the nude mouse through a dual syringe, and then the labeling performance over time was photographed with a fluorescent image device (IVIS Lumina XR, Xenogen Corporation-Caliper, CA, USA). Three solutions to be injected into the animal model were prepared in the same manner as in Preparation Examples 7 to 9. FIG. 7 is a schematic diagram of injecting an alginic acid hydrogel containing indocyanine green-human serum albumin subcutaneously to a nude mouse using a dual syringe.
The solutions of Preparation Examples 7 to 9 were injected subcutaneously to a nude mouse, respectively so that the total volume was 100 μL using a dual syringe.

[2] = 2 to 100 μM in distilled water, λex=720 nm
Method: Before developing a surgical marker using indocyanine green and human serum albumin conjugate, in order to determine the appropriate concentration of indocyanine green and human serum albumin conjugate, the two substances were mixed by each concentration to observe change in fluorescence (λex=720 nm) and absorbance.
3 mL of distilled water was added to 1.5 mg of indocyanine green (ICG, purchased from Sigma-Aldrich) and dissolved by stirring to prepare a high concentration of indocyanine green solution. Distilled water was added to the high concentration of indocyanine green solution and mixed through stirring to prepared a 2 to 100 μM solution.

SMILES: CC1(C)C(/C=C/C=C/C=C/C=C2\N(CCCCS(=O)(=O)O)c3ccc4ccccc4c3C2(C)C)=[N+](CCCCS(=O)(=O)[O-])c2ccc3ccccc3c21 [indocyanine green]
- time fluorescence was maintained / emitted (FIG. 8) ([1]; 100 μL subcutaneous, nude mouse, λex=780 nm, λem=845 nm): about one
- time at which fluorescence (ROI value) was greatest ([1]; FIG. 10A, nude mouse): 6 h
- time in which fluorescence signals almost disappeared ([1]; FIG. 10C, nude mouse): 48 h
- fluorescence remaining compared to immediately after injection ([1]; ROI value, when one day passed): 16%
- time after which injected solution spread and disappeared at injection site (FIG. 9) ([1]; appearance of injected site, nude mouse): about 24 hours
- concentration up to which maximum fluorescence intensity increased [2]: about 20 μM

From patent publication US20250082787A1, “ALGINIC ACID-BASED INJECTABLE HYDROGEL SYSTEM” (National Cancer Center, priority 2018, published 2025)
